Laboratory results reported in US20240116946A1 (Gilead Sciences, Inc., priority 2022, published 2024).
Where two headings read alike, the source gives them in different places.

Tests used:
[1] = target: recombinant SARS-CoV-2 Main protease (Mpro) (Severe acute respiratory syndrome coronavirus 2 (2019-nCoV) (SARS-CoV-2), UniProt P0DTD1); test: Cov Mpro Biochemical IC50 Assay; conditions: read-out: MPro IC50
[2] = tested on: SARS-CoV-2-NLuc; test: microbe, parasite or virus in culture; type: cell-based, SARS Coronavirus 2
[3] = recombinant SARS-CoV-2 Mpro 7.5 nM, fluorogenic peptide substrate 40 μM
[4] = Severe acute respiratory syndrome coronavirus, 48 h; read-out: MPro EC50
[5] = Severe acute respiratory syndrome coronavirus, 48 h, read-out: MPro EC50
[6] = recombinant SARS-CoV-2 Mpro, fluorogenic peptide substrate

Structure (SMILES) | IC50 [1, 3] [nM] | EC50 [2, 4] [nM] | EC50 [2, 5] [nM] | IC50 [1, 6] [nM] | EC50 ([2]; read-out: MPro EC50) [nM]
Cc1noc(C)c1-c1cc2[nH]c(=O)n(-c3cncc4cnn(C)c34)c(=O)c2s1 [Example 805] | 701 | > 1000 |  |  | 
COc1cc(-c2cc3c(s2)c(=O)n(-c2cncc(N(C)C)c2)c(=O)n3CCC#N)c(Cl)cc1F [Example 874] | 41.4 |  | 204 |  | 
COc1ccc(Cl)c(-c2cc3[nH]c(=O)n(-c4cncc5sc(C#N)c(C)c45)c(=O)c3s2)c1 [Example 1050, 4-(6-(2-chloro-5-methoxyphenyl)-2,4-dioxo-1,4-dihydrothieno[3,2-d]pyrimidin-3(2H)-yl)-3-methylthieno[2,3-c]pyridine-2-carbonitrile] | 8.89 | 25.5 |  |  | 
COc1cc(-c2cc3[nH]c(=O)n(-c4cncc5ccccc45)c(=O)c3s2)c(Cl)cc1F [Example 340, 6-(2-chloro-4-fluoro-5-methoxy-phenyl)-3-(4-isoquinolyl)-1H-thieno[3,2-d]pyrimidine-2,4-dione] |  |  | 5.39 | 5.23 | 
Cc1c(Cl)cncc1-n1c(=O)c2sc(-c3ccccc3Cl)cc2n(CCC#N)c1=O [Example 834] | 19.5 | 34.2 |  |  | 
Cn1cnc(Cn2c(=O)n(-c3cncc4ccccc34)c(=O)c3sc(-c4ccccc4Cl)cc32)n1 [Example 153, 6-(2-chlorophenyl)-3-(4-isoquinolyl)-1-[(1-methyl-1,2,4-triazol-3-yl)methyl]thieno[3,2-d]pyrimidine-2,4-dione] |  |  | 66.1 | 18.5 | 
O=c1[nH]c2cc(-c3ccccc3Cl)sc2c(=O)n1-c1cnccc1C1CC1 [Example 130, 6-(2-chlorophenyl)-3-(4-cyclopropylpyridin-3-yl)thieno[3,2-d]pyrimidine-2,4(1H,3H)-dione] |  |  | 147 | 73.1 | 
COCCn1ncc2cncc(-n3c(=O)[nH]c4cc(-c5cc(OC)c(F)cc5Cl)sc4c3=O)c21 [Example 733] | 15.2 |  | 25.8 |  | 
N#Cc1cccc(-c2ccc3c(=O)n(-c4cncc5ccccc45)c(=O)[nH]c3c2)c1 [Example 34] |  |  | 6530 | 1520 | 
Cc1ncc(-c2cccc(Cl)c2-c2cc3[nH]c(=O)n(-c4cncc5ccccc45)c(=O)c3s2)n1C [Example 521] | 14.9 |  | 129 |  | 
Cc1cc(F)ccc1-c1cc2[nH]c(=O)n(-c3cncc4ccccc34)c(=O)c2s1 [Example 177] |  |  | 137 | 89.7 | 
COc1cc(-c2cc3c(s2)c(=O)n(-c2cncc4nc(C(F)(F)F)n(C)c24)c(=O)n3CCC#N)c(Cl)cc1F [Example 856, 3-(6-(2-chloro-4-fluoro-5-methoxyphenyl)-3-(1-methyl-2-(trifluoromethyl)-1H-imidazo[4,5-c]pyridin-7-yl)-2,4-dioxo-3,4-dihydrothieno[3,2-d]pyrimidin-1(2H)-yl)propanenitrile] | 23.2 |  | 46.1 |  | 
CS(=O)(=O)c1cncc(-c2cccc(Cl)c2-c2ccc3c(=O)n(-c4cncc5ccccc45)c(=O)[nH]c3c2)c1 [Example 203] |  |  | 26.9 | 11.1 | 
COc1cc(-c2cc3[nH]c(=O)n(-c4cncc5cccc(F)c45)c(=O)c3cc2OC)c(C#N)cc1F [Example 682] | 20.2 |  | 33 |  | 
O=c1[nH]c2cc(-c3c(Cl)cccc3-c3ccnnc3)sc2c(=O)n1-c1cncc(C2CC2)c1 [Example 616] | 6.92 |  | 320 |  | 
N#CCCn1c(=O)n(-c2cncc(F)c2)c(=O)c2sc(-c3ccc(F)cc3Cl)cc21 [Example 788] | 35.6 |  | 52.2 |  | 
COc1cc(-c2cc3c(s2)c(=O)n(-c2cncc4ccccc24)c(=O)n3Cc2ncn(C)n2)c(Cl)cc1F [Example 689] | 32 |  | 30 |  | 
COc1ccc(F)c(-c2ccc3c(=O)n(-c4cncc5ccccc45)c(=O)[nH]c3c2)c1 [Example 254] |  |  | 277 | 107 | 
CN(C)c1cncc(-n2c(=O)[nH]c3cc(-c4ccccc4Cl)sc3c2=O)c1 [Example 380] |  |  | 770 | 5950 | 
Cc1noc(C)c1-c1cc2[nH]c(=O)n(-c3cncc4ccccc34)c(=O)c2s1 [Example 362] |  |  | 201 | 35.6 | 
COc1ccc2cncc(-n3c(=O)[nH]c4cc(-c5c(Cl)cccc5-c5cn6ncnc6c6c5CCC6)sc4c3=O)c2c1 [Example 564] | 14.6 |  | 52.5 |  | 
CCn1ncc2cncc(-n3c(=O)c4sc(-c5cc(OC)c(F)cc5Cl)cc4n(CCC#N)c3=O)c21 [Example 910] | 4.34 |  | 4.35 |  | 
COc1ccc(Cl)c(-c2ccc3c(=O)n(-c4cncc5ccccc45)c(=O)[nH]c3c2)c1F [Example 322] |  |  | 1300 | 3530 | 
COc1ccc(-c2cc3[nH]c(=O)n(-c4cncc5ccccc45)c(=O)c3s2)c(Cl)c1 [Example 722] | 34 |  | 68.8 |  | 

Structure (SMILES) | IC50 [1, 3] [nM] | EC50 [2, 4] [nM] | EC50 [2, 5] [nM] | IC50 [1, 6] [nM] | EC50 ([2]; read-out: MPro EC50) [nM]
COc1ccc(Cl)c(-c2cc3[nH]c(=O)n(-c4cncc5ccc(N6CCn7c(nnc7C(F)(F)F)C6)cc45)c(=O)c3s2)c1 [Example 603] | 2.75 |  | 14.6 |  | 
COc1ccc2cncc(-n3c(=O)[nH]c4cc(-c5ccccc5Cl)sc4c3=O)c2n1 [Example 449, 6-(2-chlorophenyl)-3-(2-methoxy-1,6-naphthyridin-8-yl)thieno[3,2-d]pyrimidine-2,4(1H,3H)-dione] | 14 |  | 29.2 |  | 
Cc1cc(-c2cc3[nH]c(=O)n(-c4cncc5ccccc45)c(=O)c3s2)c(Cl)cc1F [Example 350] |  |  | 49.2 | 17.2 | 
COc1ccc(Cl)c(-c2ccc3c(=O)n(-c4cncc5cccnc45)c(=O)[nH]c3c2)c1 [Example 462, 7-(2-chloro-5-methoxyphenyl)-3-(1,6-naphthyridin-8-yl)quinazoline-2,4(1H,3H)-dione] | 28.4 |  | 61.5 |  | 
Cc1nc2cncc(-n3c(=O)c4sc(-c5ccc(F)cc5Cl)cc4n(CCC#N)c3=O)c2n1C [Example 853, 3-(6-(2-chloro-4-fluorophenyl)-3-(1,2-dimethyl-1H-imidazo[4,5-c]pyridin-7-yl)-2,4-dioxo-3,4-dihydrothieno[3,2-d]pyrimidin-1(2H)-yl)propanenitrile] | 26.8 |  | 102 |  | 
NC(=O)COc1cccc(Cl)c1-c1ccc2c(=O)n(-c3cncc4ccccc34)c(=O)[nH]c2c1 [Example 91] |  |  | 1140 | 216 | 
COc1ccc(C#N)c(-c2cc3c(cc2F)c(=O)n(-c2cncc4ccccc24)c(=O)n3CCC#N)c1 [Example 902] | 87.3 |  | 134 |  | 
COc1ccc(Cl)c(-c2cc3[nH]c(=O)n(-c4cncc5ccn(C)c45)c(=O)c3s2)c1 [Example 455] | 7.26 |  | 7.02 |  | 
COc1cc(-c2cc3[nH]c(=O)n(-c4cncc5scc(C)c45)c(=O)c3s2)c(Cl)cc1F (single isomer, unassigned) [Example 1057, 6-(2-chloro-4-fluoro-5-methoxyphenyl)-3-(3-methylthieno[2,3-c]pyridin-4-yl)thieno[3,2-d]pyrimidine-2,4(1H,3H)-dione] | 145 |  |  |  | 52.6
COc1cc(-c2cc3[nH]c(=O)n(-c4cncc5cc(C(=O)N6CCOCC6)sc45)c(=O)c3s2)c(Cl)cc1F [Example 649] | 7.91 |  | 195 |  | 
O=c1[nH]c2cc(-c3c(Cl)cccc3-c3ccc4c(c3)OCCO4)sc2c(=O)n1-c1cncc2ccccc12 [Example 354] |  |  | 12.8 | 45.6 | 
Cc1nn(C)cc1-c1cccc(Cl)c1-c1ccc2c(=O)n(-c3cncc4ccccc34)c(=O)[nH]c2c1 [Example 148] |  |  | 14.1 | 10.4 | 
COCc1cccc(Cl)c1-c1ccc2c(=O)n(-c3cncc4ccccc34)c(=O)[nH]c2c1 [Example 100] |  |  | 448 | 326 | 
Cc1ccncc1-n1c(=O)[nH]c2cc(-c3ccccc3Cl)ccc2c1=O [Example 121, 7-(2-chlorophenyl)-3-(4-methylpyridin-3-yl)quinazoline-2,4(1H,3H)-dione] |  |  | 1150 | 708 | 
COc1cc(-c2cc3c(s2)c(=O)n(-c2cncc4ccccc24)c(=O)n3CCC#N)c(Cl)cc1Cl [Example 832] | 7.71 |  | 7.16 |  | 
COCCn1c(=O)n(-c2cncc3cnn(C)c23)c(=O)c2sc(-c3cc(OC)c(F)cc3Cl)cc21 [Example 1069] | 38.9 |  | 130 |  | 
Cc1nc2cncc(-n3c(=O)c4sc(-c5ccccc5C#N)cc4n(CCC#N)c3=O)c2n1C [Example 854] | 93.3 |  | > 1000 |  | 
Cc1ccc(C#N)cc1-c1cc2c(s1)c(=O)n(-c1cncc3cnn(C)c13)c(=O)n2CCC#N [Example 809] | 54.2 |  | 200 |  | 
COc1cc(-c2cc3[nH]c(=O)n(-c4cncc5ccccc45)c(=O)c3cc2OC)c(C#N)cc1F (single isomer, unassigned) [Example 572, 5-fluoro-2-[3-(4-isoquinolyl)-6-methoxy-2,4-dioxo-1H-quinazolin-7-yl]-4-methoxy-benzonitrile] | 2.9 |  |  |  | 10.6
CS(=O)(=O)N1CC(Nc2ccc3cncc(-n4c(=O)[nH]c5cc(-c6ccccc6Cl)sc5c4=O)c3c2)C1 [Example 406] | 12.6 |  | 471 |  | 
Cn1ncc2cncc(-n3c(=O)c4sc(-c5cc(C#N)ccc5Cl)cc4n(CCC#N)c3=O)c21 [Example 811] | 13.2 |  | 53.5 |  | 
O=c1c2sc(-c3ccccc3Cl)cc2n(Cc2cccnc2)c(=O)n1-c1cncc2ccccc12 [Example 156] |  |  | 171 | 167 | 
COc1ccc(Cl)c(-c2cc3[nH]c(=O)n(-c4cncc5cccc(Cl)c45)c(=O)c3s2)c1 [Example 601] | < 2.54 |  | 14.7 |  | 
Cc1c(-c2cccc(Cl)c2-c2ccc3c(=O)n(-c4cncc5ccccc45)c(=O)[nH]c3c2)cnn1C1CCNCC1 [Example 473] | 17.5 |  | 1810 |  | 
